pIC50: −log10 of the molar value. Active and inactive are the calls of the source. The rule behind the calls is not given here.
Key:
Leishmania orientalis [1] = assay: Antileishmanial activity against Leishmania orientalis MHOM/TH/2010/PCM2 axenic amastigotes at 0.25 uM incubated for 72 hrs by resazurin dye based colorimetric assay relative to control; type: functional; conditions: for inhibition at 0.25 µM: Leishmania orientalis, MHOM/TH/2010/PCM2, 72 h
Leishmania orientalis [2] = assay: Antileishmanial activity against Leishmania orientalis MHOM/TH/2010/PCM2 promastigote at 0.1 uM incubated for 72 hrs by resazurin dye based colorimetric assay relative to control; type: functional; conditions: for inhibition at 0.1 µM: Leishmania orientalis, MHOM/TH/2010/PCM2, 72 h
[3] = tested on: Leishmania martiniquensis; assay: Antileishmanial activity against Leishmania martiniquensis MHOM/MQ/92/MAR promastigote at 0.25 uM incubated for 72 hrs by resazurin dye based colorimetric assay relative to control; type: functional; conditions: for inhibition at 0.25 µM: Leishmania martiniquensis, MHOM/MQ/92/MAR, 72 h
J774.A1 [4] = assay: Cytotoxicity against mouse J774A.1 cells assessed as reduction in cell viability at 4.0 uM incubated for 72 hrs by colorimetric assay relative to control; type: cell-based; conditions: j774.a1, 72 h
[5] = tested on: Leishmania martiniquensis; assay: Antileishmanial activity against Leishmania martiniquensis MHOM/MQ/92/MAR promastigote at 0.1 uM incubated for 72 hrs by resazurin dye based colorimetric assay relative to control; type: functional; conditions: for inhibition at 0.1 µM: Leishmania martiniquensis, MHOM/MQ/92/MAR, 72 h
Leishmania orientalis [6] = assay: Antileishmanial activity against Leishmania orientalis MHOM/TH/2010/PCM2 promastigote at 0.25 uM incubated for 72 hrs by resazurin dye based colorimetric assay relative to control; type: functional; conditions: for inhibition at 0.25 µM: Leishmania orientalis, MHOM/TH/2010/PCM2, 72 h
J774.A1 [7] = assay: Cytotoxicity against mouse J774A.1 cells assessed as reduction in cell viability at 0.25 uM incubated for 72 hrs by colorimetric assay relative to control; type: cell-based; conditions: j774.a1, 72 h
Leishmania orientalis [8] = assay: Antileishmanial activity against Leishmania orientalis MHOM/TH/2010/PCM2 promastigote incubated for 72 hrs by resazurin dye based colorimetric assay; type: functional, organism-based
Leishmania orientalis [9] = assay: Antileishmanial activity against Leishmania orientalis MHOM/TH/2010/PCM2 axenic amastigotes incubated for 72 hrs by resazurin dye based colorimetric assay; type: functional, organism-based
[10] = tested on: Leishmania martiniquensis; assay: Antileishmanial activity against Leishmania martiniquensis MHOM/MQ/92/MAR promastigote incubated for 72 hrs by resazurin dye based colorimetric assay; type: functional, organism-based
[11] = tested on: Leishmania martiniquensis; assay: Potency index, ratio of IC50 for miltefosine to IC50 for test compound for antileishmanial activity against Leishmania martiniquensis MHOM/MQ/92/MAR promastigote incubated for 72 hrs by resazurin dye based colorimetric assay; type: functional
[12] = Leishmania orientalis, MHOM/TH/2010/PCM2, 72 h

| SMILES | inhibition at 0.25 µM (Leishmania orientalis [1]) [%] | inhibition at 0.1 µM (Leishmania orientalis [2]) [%] | inhibition at 0.25 µM [3] [%] | Activity (J774.A1 [4]) [%] | inhibition at 0.1 µM [5] [%] | inhibition at 0.25 µM (Leishmania orientalis [6]) [%] | Activity (J774.A1 [7]) | pIC50 (Leishmania orientalis [8]; [12]) | pIC50 (Leishmania orientalis [9]; [12]) | inhibition (Leishmania orientalis [2]) | pIC50 ([10]; Leishmania martiniquensis, MHOM/MQ/92/MAR, 72 h) | pIC50 [10] | inhibition (INH) (Leishmania orientalis [1]) [%] | pIC50 (Leishmania orientalis [8]) | inhibition (INH) (Leishmania orientalis [2]) [%] | inhibition (INH) [3] [%] | inhibition (INH) [5] [%] | inhibition (INH) (Leishmania orientalis [6]) [%] | Ratio IC50 [11] | pIC50 (Leishmania orientalis [9]) |
| --- | --- | --- | --- | --- | --- | --- | --- | --- | --- | --- | --- | --- | --- | --- | --- | --- | --- | --- | --- | --- |
| CCn1c(=O)/c(=C/C=C2\Sc3cc(F)ccc3N2C)s/c1=C\c1sc2cc(F)ccc2[n+]1C.[Cl-] | 62.1 | 1.9 | 62.9 | 46 | 17.6 | 76 | Non-Toxic |  |  |  |  |  |  |  |  |  |  |  |  |  |
| CCn1c(=O)/c(=C/C=C2\Sc3ccc(F)cc3N2C)s/c1=C\c1sc2ccc(F)cc2[n+]1C.[Cl-] | 87.9 | 57.5 | 79.8 | 13.8 | 56.4 | 81.5 | Non-Toxic | 6.79 | 7.10 |  |  |  |  |  |  |  |  |  |  |  |
| CCn1c(=O)/c(=C/C=C2\Sc3ccccc3N2C)s/c1=C\c1sc2cc(OC(F)(F)F)ccc2[n+]1C.[Cl-] | 59.2 | 12.5 | 27.1 | 48.6 | 8.7 | 60.9 | Non-Toxic |  |  |  |  |  |  |  |  |  |  |  |  |  |
| CCn1c(=O)/c(=C/C=C2\Sc3ccccc3N2C)s/c1=C\c1sc2cc(C(F)(F)F)ccc2[n+]1C.[Cl-] | 71.1 | 39 | 24.9 | 33.3 | 10.5 | 87.6 | 0.5% |  |  |  |  |  |  |  |  |  |  |  |  |  |
| CCn1c(=O)/c(=C/C=C2\Sc3ccc(F)cc3N2C)s/c1=C\c1sc2cc(F)ccc2[n+]1C.[Cl-] | 88.9 | 20.4 | 75.9 | 21 | 43.9 | 79.3 | Non-Toxic |  | 7.09 |  |  |  |  |  |  |  |  |  |  |  |
| CCn1c(=O)/c(=C/C=C2\Sc3ccccc3N2C)s/c1=C\c1sc2cc(F)ccc2[n+]1C.[Cl-] | 78.5 | 85.7 | 71.1 | 41.3 | 57.1 | 95.4 | Non-Toxic | 7.40 | 6.70 |  |  |  |  |  |  |  |  |  |  |  |
| CCn1c(=O)/c(=C/C=C2\Sc3cc(C(F)(F)F)ccc3N2C)s/c1=C\c1sc2ccc(F)cc2[n+]1C.[Cl-] | 68.4 |  | 39.2 | 52.2 | 5.9 | 33.3 | 13.3% |  |  | inactive |  |  |  |  |  |  |  |  |  |  |
| CCn1c(=O)/c(=C/C=C2\Sc3ccccc3N2C)s/c1=C\c1sc2cccc(F)c2[n+]1C.[Cl-] | 58.2 | 67.5 | 64.1 | 24.9 | 37.7 | 92.9 | Non-Toxic | 7.19 |  |  |  |  |  |  |  |  |  |  |  |  |
| CCn1c(=O)/c(=C/C=C2\Sc3c(F)cccc3N2C)s/c1=C\c1sc2ccccc2[n+]1C.[Cl-] | 47.9 |  | 92.7 | 72.8 | 56.1 | 75.4 | Non-Toxic |  |  | inactive | 6.57 |  |  |  |  |  |  |  |  |  |
| CCn1c(=O)/c(=C/C=C2\Sc3ccccc3N2C)s/c1=C\c1sc2ccc(F)cc2[n+]1C.[Cl-] |  |  |  | 26.9 |  |  | Non-Toxic |  |  |  |  | 7.07 | 86.5 | 6.98 | 66.2 | 89.3 | 82.8 | 91.7 | 200 | 7.10 |

From ChEMBL document CHEMBL4609989, “Synthesis and antileishmanial activity of fluorinated rhodacyanine analogues: The 'fluorine-walk' analysis” (Bioorg Med Chem, 2020)
